Measured values from US20170022258A1, “PEPTIDES FOR USE IN THE TREATMENT OF IL-1 RELATED DISEASES AND CONDITIONS” (C4M PHARMACEUTICALS PTY LTD., priority 2011, published 2017).
Non-standard residues stand in square brackets, D forms with d. Residues, ends and D or L forms follow the SMILES beside them.

Legend:
[1] = tested on: IL-1 stimulation of IL-8 in human skin fibroblasts; assay: Inhibition of IL-1 induced IL-8 in human fibroblasts; assay type: cell-based; details: inhibition of IL-1 stimulation of IL-8 in human skin fibroblasts; average of three measurements and standard error; read-out: Binding (IC50 nM)
[2] = Stability of peptide once dissolved in solution (1 month); assay type: physicochemical; details: 1 mg in 5 ml water, bicarbonate and benzyl alcohol (19, 4) or methanol (13, 14)
Procedure: Each of the peptides having the sequences 13, 14, 19 and 4 were tested to determine their stability in a solution containing (preferred composition above) water, bicarbonate and either benzyl alcohol (peptide 19 and 4) or methanol (peptide 13 and 14). Each of the peptides were held for a period of 1 month at either 4° C. or at room temperature.
1 mg of each peptide was added to the water, bicarbonate and either benzyl alcohol or methanol solution and the solution was gently agitated for 1 hour at room temperature before standing at either 4° C. or at room temperature for a period of 1 month.

[3] = Human plasma stability trials; assay type: in vitro ADME; details: 37° C., 12 hours, read-out: ½ Life human plasma
Procedure: 1 mg of each peptide was added to the plasma and the solution was gently agitated for 2 minutes at room temperature before standing at 37° C. for a period of 12 hours.

[4] = tested on: cows; assay: Testing of peptide 4 in cows for treatment of mastitis; assay type: in vivo, cow; details: 1 mg, IV
Procedure: The peptides were prepared as compositions containing 1 mg of peptide dissolved in 5 ml of a solution comprising water, bicarbonate and either benzyl alcohol or methanol.

[5] = tested on: horses; assay: Testing of peptide 4 in horses for treatment of osteoarthritis and equine laminitis; assay type: in vivo, horse; details: 1 mg
Procedure: The peptides were prepared as compositions containing 1 mg of peptide dissolved in 5 ml of solution, comprising water, bicarbonate and either benzyl alcohol or methanol.

[6] = tested on: cancer patients with cachexia; assay: Treatment of cachexia in cancer patients (case reports); assay type: in vivo, human
Procedure: Patients are typically diagnosed as having cachexia where weight loss of at least 5% in 12 months or less (or BMI<20 kg/m^2), is accompanied by at least three of the following conditions: • Decreased muscle strength • Fatigue • Low fat-free mass index; and • Abnormal blood biochemistry: increased inflammatory markers (CRP, IL-6), anaemia (Hb<12 g/dL) and low serum albumin (<3.2 g/dL)
The peptide was administered by subcutaneous injection every second day for two weeks, in a composition containing the peptide dissolved in 5 ml of a solution comprising water, bicarbonate and either benzyl alcohol or methanol.
The peptide was administered by subcutaneous injection every second day for one month, in a composition containing the peptide dissolved in 5 ml of a solution comprising water, bicarbonate and either benzyl alcohol or methanol
The peptide was administered by subcutaneous injection every second day, in a composition containing the peptide dissolved in 5 ml of a solution comprising water, bicarbonate and either benzyl alcohol or methanol.
The peptide was administered by subcutaneous injection every second day for two months, in a composition containing the peptide dissolved in 5 ml of a solution comprising water, bicarbonate and either benzyl alcohol or methanol.
The peptide was administered by subcutaneous injection every second day for one week, in a composition containing the peptide dissolved in 5 ml of a solution comprising water, bicarbonate and either benzyl alcohol or methanol.
The peptide was administered by subcutaneous injection every second day for one month, in a composition containing the peptide dissolved in 5 ml of a solution comprising water, bicarbonate and either benzyl alcohol or methanol.
The peptide was administered by subcutaneous injection every second day for one month in a composition containing the peptide dissolved in 5 ml of a solution comprising water, bicarbonate and either benzyl alcohol or methanol.

[7] = Example 16: breast cancer, 1 mg subcutaneous every second day for one month

Stability of peptide once dissolved in solution (at 1 month), 4° C. (month) ([2]; 4° C.): 100%
Stability of peptide once dissolved in solution (at 1 month), Room Temp (month) ([2]; room temperature): 96%
half-life [3]: 18.1 h
Structure (SMILES): CC(=O)N[C@H](CC(C)C)C(=O)N1CCC[C@@H]1C(=O)N[C@H](CC(C)C)C(=O)N[C@H](C)C(=O)N[C@H](Cc1ccc(O)cc1)C(=O)N1CCC[C@@H]1C(=O)N[C@H](CCC(N)=O)C(=O)N[C@H](Cc1c[nH]c2ccccc12)C(=O)N[C@H](Cc1ccc(O)cc1)C(=O)NCC(=O)N1CCC[C@@H]1C(=O)N[C@@H](C(=O)N[C@H](Cc1c[nH]c2ccccc12)C(=O)N[C@H](CCC(=O)O)C(=O)N[C@H](Cc1ccccc1)C(=O)O)[C@H](C)O [SEQ ID NO. 4, Ac-LPLAYPQWYGPTWEF] (Ac-[dL][dP][dL][dA][dY][dP][dQ][dW][dY]G[dP][dT][dW][dE][dF]-OH; C-terminus assumed)
IC50 [1]: 5.9 nM
Duration [4]: 72 h
Effect [4]: Pronounced
Duration ([5]; Laminitis, IV): 72 h
Effect ([5]; Laminitis, IV): Pronounced
Duration ([5]; OA, Joint): 48 h
Effect ([5]; OA, Joint): Moderate
Side effects due to the administration of the peptide ([6]; Example 9: breast cancer, 1 mg subcutaneous every second day for two weeks): No side effects were noted
Symptoms of cachexia ([6]; Example 9: breast cancer, 1 mg subcutaneous every second day for two weeks, after 24 hours): cachexia symptoms were alleviated
Symptoms of cachexia ([6]; Example 10: adrenal adenomas, 1 mg subcutaneous every second day for one month): symptoms of cachexia were alleviated
Symptoms of cachexia ([6]; Example 11: glioblastoma, 1 mg subcutaneous every second day): symptoms of cachexia were alleviated
Symptoms of cachexia ([6]; Example 12: brain adenoma, 1 mg subcutaneous every second day for two months, two days after commencement): symptoms of cachexia were alleviated
Symptoms of cachexia ([6]; Example 13: brain glioma, 1 mg subcutaneous every second day for one week): symptoms of cachexia were alleviated
Symptoms of cachexia ([6]; Example 14: ovarian cancer, 1 mg subcutaneous every second day for one month): symptoms of cachexia were also alleviated
Symptoms of cachexia ([6]; Example 15: bone cancer, 1 mg subcutaneous every second day for one month): symptoms of cachexia were alleviated
Symptoms of cachexia [6, 7]: symptoms of cachexia were also alleviated
Weight put on [6, 7]: 5 kg
Symptoms of cachexia ([6]; Example 17: breast cancer, 1 mg subcutaneous every second day for two weeks): symptoms of cachexia were alleviated
Symptoms of cachexia ([6]; Example 18: bladder cancer, 1 mg subcutaneous every second day for one month, after 24 from commencement): symptoms of cachexia were alleviated
Symptoms of cachexia ([6]; Example 19: colon cancer, 1 mg subcutaneous every second day for one month): symptoms of cachexia were largely alleviated
Symptoms of cachexia ([6]; Example 20: colon cancer, 1 mg subcutaneous every second day for one month, one month after commencement): symptoms of cachexia had been treated
Symptoms of cachexia ([6]; Example 21: glioblastoma, 1 mg subcutaneous every second day for one month, two days after commencement): cachexia started to diminish
Symptoms of cachexia ([6]; Example 22: glioblastoma, 1 mg subcutaneous every second day, after 24 hours): symptoms of cachexia had been alleviated
Symptoms of cachexia ([6]; Example 23: Hodgkin's lymphoma, 1 mg subcutaneous every second day for one month, after three weeks): symptoms of cachexia were alleviated
Weight gained ([6]; Example 24: colon cancer, 1 mg subcutaneous every second day): ~5 kg
Symptoms of cachexia ([6]; Example 24: colon cancer, 1 mg subcutaneous every second day, after two weeks): symptoms of cachexia were alleviated
Symptoms of cachexia ([6]; Example 25: non-Hodgkin's lymphoma, 1 mg subcutaneous every second day, after 4 days): symptoms of cachexia were alleviated
Symptoms of cachexia ([6]; Example 26: pancreatic cancer, 1 mg subcutaneous every second day, after 7 days): symptoms of cachexia were alleviated
Symptoms of cachexia ([6]; Example 27: liposarcoma, 1 mg subcutaneous every second day, after 3 days): symptoms of cachexia were alleviated
Symptoms of cachexia ([6]; Example 28: liver cancer, 1 mg subcutaneous every second day, after one week): symptoms of cachexia were largely alleviated
